Results as given in patent publication US10463658B2, “Method of inhibiting FLT3 kinase” (AROG Pharmaceuticals, LLC, priority 2013, dated 2019).
Changes are numbered by the printed parent chain.

Legend:
FLT3 K663Q = target: T1, FLT3 K663Q (Homo sapiens, UniProt P36888, K663Q); experiment: KINOMEscan KdElect competitive binding assay, FLT3 K663Q; settings: tosylate salt; read-out: Binding Constant (Kd), FLT3 K663Q
T1 construct: host or cells: E. coli BL21-derived host (T7 phage) or HEK-293
T1 sequence (P36888 610-943 K663Q limits assumed): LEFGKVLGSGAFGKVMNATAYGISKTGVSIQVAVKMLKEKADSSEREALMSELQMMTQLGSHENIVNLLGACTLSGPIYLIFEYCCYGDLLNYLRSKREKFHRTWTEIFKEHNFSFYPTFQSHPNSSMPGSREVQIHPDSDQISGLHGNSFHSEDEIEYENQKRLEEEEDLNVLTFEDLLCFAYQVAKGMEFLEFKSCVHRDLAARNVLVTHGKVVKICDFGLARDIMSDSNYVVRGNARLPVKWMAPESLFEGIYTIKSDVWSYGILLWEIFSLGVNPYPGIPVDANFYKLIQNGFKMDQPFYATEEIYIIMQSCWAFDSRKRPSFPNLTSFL
From the text: (§1) Competitive binding assay.
(§2) The lysates were then centrifuged and filtered.

FLT3 D835H = target: T2, FLT3 D835H (Homo sapiens, UniProt P36888, D835H); experiment: KINOMEscan KdElect competitive binding assay, FLT3 D835H; settings: tosylate salt
T2 construct: host or cells: E. coli BL21-derived host (T7 phage) or HEK-293
T2 sequence (P36888 610-943 D835H limits assumed): T1 sequence (P36888 610-943 K663Q limits assumed) with Q54K, D226H
From the text: as §1, §2

FLT3 non-autoinhibited = target: T3, FLT3 non-autoinhibited (Homo sapiens, UniProt P36888); experiment: KINOMEscan KdElect competitive binding assay, non-autoinhibited FLT3; settings: tosylate salt
T3 construct: host or cells: E. coli BL21-derived host (T7 phage) or HEK-293
T3 sequence (P36888 610-943 limits assumed): T1 sequence (P36888 610-943 K663Q limits assumed) with Q54K
From the text: as §1, §2

FLT3-ITD = target: T4, FLT3-ITD (Homo sapiens, UniProt P36888); experiment: Inhibition of FLT3-ITD phosphorylation by western blot in Molm-13 cells; assay type: cell-based; settings: tosylate salt, read-out: IC50, inhibition of phosphorylation of the FLT3-ITD receptor
T4 sequence (P36888 with tags, fused parts or gaps DUP594-600): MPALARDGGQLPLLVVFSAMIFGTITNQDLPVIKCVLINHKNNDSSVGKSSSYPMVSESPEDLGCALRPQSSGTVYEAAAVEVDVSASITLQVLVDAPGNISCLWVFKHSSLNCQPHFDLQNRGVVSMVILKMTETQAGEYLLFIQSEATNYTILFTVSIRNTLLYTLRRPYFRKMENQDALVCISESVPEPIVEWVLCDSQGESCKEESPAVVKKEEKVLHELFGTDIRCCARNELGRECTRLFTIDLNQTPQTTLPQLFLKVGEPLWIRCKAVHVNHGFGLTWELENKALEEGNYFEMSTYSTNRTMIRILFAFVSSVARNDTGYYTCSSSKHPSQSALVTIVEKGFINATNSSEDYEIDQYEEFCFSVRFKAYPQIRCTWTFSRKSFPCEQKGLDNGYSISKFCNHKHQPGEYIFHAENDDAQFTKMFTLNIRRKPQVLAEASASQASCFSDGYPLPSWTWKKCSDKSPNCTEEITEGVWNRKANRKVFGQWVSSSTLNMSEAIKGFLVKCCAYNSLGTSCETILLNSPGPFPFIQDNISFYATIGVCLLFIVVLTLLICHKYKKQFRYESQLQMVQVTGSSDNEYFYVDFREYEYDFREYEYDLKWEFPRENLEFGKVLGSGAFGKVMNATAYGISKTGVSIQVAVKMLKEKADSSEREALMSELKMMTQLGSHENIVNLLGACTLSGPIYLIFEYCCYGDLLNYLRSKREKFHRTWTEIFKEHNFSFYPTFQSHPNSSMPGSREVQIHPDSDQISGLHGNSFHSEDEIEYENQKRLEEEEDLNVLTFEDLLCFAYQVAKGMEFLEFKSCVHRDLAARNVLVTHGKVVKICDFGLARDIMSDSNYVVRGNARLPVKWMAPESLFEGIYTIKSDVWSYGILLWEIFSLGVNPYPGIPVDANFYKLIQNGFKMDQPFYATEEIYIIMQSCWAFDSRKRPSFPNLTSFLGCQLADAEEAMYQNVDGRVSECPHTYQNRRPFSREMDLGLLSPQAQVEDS
Description: The ability of the tosylate (toluenesulfonate) salt of CP-673,451 to inhibit phosphorylated FLT3 was determined using cell lines expressing FLT3-ITD, including Molm-13 (a human acute myeloid leukemia cell line) and BaF3 (bone marrow-derived pro-B-cell line) cells transduced to express FLT3. The effect was examined by western blot.

- Kd (FLT3 K663Q): 0.62 nM
- Kd (FLT3 D835H): 0.16 nM
- affinity shift between the non-autoinhibited and autoinhibited states of FLT3 (FLT3 non-autoinhibited): approximately 50 fold
- Kd (FLT3 non-autoinhibited; average Kd, read-out: Binding Constant (Kd), FLT3 non-autoinhibited): 0.35 nM
- IC50 (FLT3-ITD): 0.7 nM
Structure (SMILES): COCCOc1ccc2c(c1)ncn2-c1ccc2cccc(N3CCC(N)CC3)c2n1 [CP-673,451]
